Values of other authors, collected in patent US20230181510A1, “COMPOSITION AND METHODS OF RETINOIC ACID” (priority 2020, published 2023).

Assays:
collagen = conditions: topical treatment
human skin = conditions: topical stabilized treatment, human skin in vitro and in vivo

For retinoic acid, the Collagen regeneration (collagen) is listed as “stimulates collagen regeneration” and the “Expression of HAS genes and HA production” value (human skin) is listed as “induce the expression of hyaluronic acid (HA) synthase (HAS) genes and HA production”.
